Active and inactive are the calls of the source. The calls are words filed in the database; no cut-off is given here.
Tested on: Mycobacterium tuberculosis variant bovis BCG
Test: Antimycobacterial activity against Mycobacterium bovis BCG Pasteur assessed as growth inhibition at 160 ug/ml by resazurin microtiter plate assay
Assay type: functional, organism-based

O=c1[nH]c(=O)n(C/C=C/CN2c3cccc4c3N(CCC4)S2(=O)=O)cc1Br was tested. Which Activity did it give?
The Activity was “inactive”.

Which Activity does the source give for CC(=O)NC1Cc2cccc3c2n(c(=O)n3C/C=C/Cn2cc(C)c(=O)[nH]c2=O)C1 (configuration not stated) here?
Its Activity is “inactive”.

With Cc1cn(C/C=C/Cn2c(=O)n3c4c(cccc42)CC(N)C3)c(=O)[nH]c1=O (configuration not stated) as the compound, how does the Activity read?
Its Activity is “inactive”.

Which Activity does the source give for Cc1cn(C/C=C/CN2c3cccc4c3N(CCC4)S2(=O)=O)c(=O)[nH]c1=O here?
The Activity was “inactive”.

Which Activity does the source give for Cc1cn(C/C=C/Cn2c(=O)n3c4c(cccc42)CCC3)c(=O)[nH]c1=O here?
Its Activity is “inactive”.

Cc1cn(C/C=C/Cn2c(=O)n3c4c(cc(N)cc42)CCC3)c(=O)[nH]c1=O was tested. Which Activity did it give?
Its Activity is “inactive”.

CC(=O)Nc1cc2c3c(c1)n(C/C=C/Cn1cc(C)c(=O)[nH]c1=O)c(=O)n3CCC2 was tested. Which Activity did it give?
The Activity was “inactive”.

Reference: ChEMBL document CHEMBL1629509, “Design, synthesis and inhibitory activity against Mycobacterium tuberculosis thymidine monophosphate kinase of acyclic nucleoside analogues with a distal imidazoquinolinone” (Eur J Med Chem, 2010)
